The target in test [1] is T1, Cavβ2 subunit (Homo sapiens, UniProt Q08289).
T1 construct: incubated with 100 μg of Cavβ2 subunit from cardiac homogenate and cytoplasmic protein preparation; from tissue; host or cells: cardiac homogenate and cytoplasmic protein preparation
Nature of the test: Competitive binding affinity assay, biotinylated AID affinity beads vs Cavβ2 subunit (Example 9). The note with it: dose-response 0, 10 nM to 100 μM peptide; FIG. 9. How it is done:
In this experiment, a binding affinity assay was utilized to examine the binding efficacy of AID peptide variants presented in Table 8, compared to the original AID peptide.
Biotinylation of original AID (no TAT): For each reaction (a dose-response curve consisted of 6 reactions), 0.02 nM […] was incubated in biotinylation solution (0.1M MES buffer containing 1 nM amine-PEG11-biotin and 0.2 nM EDC) for 2 hrs at room temperature with agitation (400 rpm). Affinity beads (Dynabeads M-280 Streptavidin, ThermoFisher Scientific) were then incubated with biotinylated AID peptide for 30 min at room temperature with agitation (400 rpm). Afterwards, biotinylated AID-coated affinity beads were washed, initially in 0.1% BSA in PBS and then three times in PBS for 3 min.
Biochem J. 2000; 348 Pt 3:657-65; Haase H, Striessnig J, Holtzhauer M, Vetter R, Glossmann H. A rapid procedure for the purification of cardiac 1,4-dihydropyridine receptors from porcine heart. Eur J Pharmacol. 1991; 207(1):51-9).
Competitive binding of AID-affinity beads and Cavβ2 subunit: Cavβ2-AID mutant peptide dilutions were then incubated with biotinylated AID-coated affinity beads for 2 hrs at room temperature with gentle agitation (400 rpm). Samples were placed on a magnetic stand to allow affinity beads to migrate to the magnet. Supernatant was removed and treated with 1× sample buffer (62.5 mM Tris-HCl, pH 6.8, 2% SDS, 10% glycerol, 100 mM DTT, 0.002% Bromophenol Blue) for 5 min at 95° C. Resulting protein was analysed by immunoblot.

Test [2] concerns Guinea pig hearts. Description: Myocardial ischemia-reperfusion injury, Langendorff hearts ex vivo (CK, LDH, GSH:GSSG). The note with it: for Creatine Kinase (CK) activity in perfusate: FIG. 6(a); for Lactate Dehydrogenase (LDH) activity in perfusate: FIG. 6(b); for GSH:GSSG ratio in whole heart tissue: FIG. 6(c).
Procedure: Adult male guinea pigs were anesthetized with pentobarbitone sodium (240 mg/kg) via intraperitoneal injection prior to excision of the heart. Guinea pig hearts were cannulated onto a Langendorff apparatus via the aorta and perfused retrogradely with Ca^2+ containing KHB comprising (in mM): 120 NaCl, 25 NaHCO3, 4.8 KCl, 2.2 MgSO4, 1.2 NaH2PO4, 11 glucose and 1.5 CaCl2 (pH=7.35 with O2/CO2 at 37° C.) at 37° C. for 30 min at a rate of 7 mL/min, followed by 30 min no-flow ischemia, then 30 min reperfusion as previously described.
Perfusates were collected 20 and 25 min pre-ischemia and 20 and 30 min following reperfusion. A single dose of 0.5-10 μM AID(S)-TAT, AID-TAT, peptide 6 or peptide 7 was added to Ca^2+-containing KHB solution just prior to reperfusion. Creatine Kinase (CK) and Lactate Dehydrogenase (LDH) activity was measured in perfusates collected pre- and post-ischemia, and post-ischemia values normalized to pre-ischemia values.
For each sample, 10 μL of perfusate was added to 100 μL CK enzyme reagent (CK NAC-activated diagnostic kit, Randox Laboratories) and the rate of increase in absorbance recorded over 15 min at 30° C. using a spectrophotometer (PowerWave XS, BioTek, 340 nm).
To determine LDH activity, 150 μL of each sample was mixed with 50 μL of LDH reagent (50 mM imidazole buffer, 375 μM NADH, pyruvate and 0.05% BSA, pH=7) and the rate of decrease in absorbance recorded over 15 min at 25° C. using a spectrophotometer (PowerWave XS, BioTek, 340 nm).
GSSG was calculated by subtracting GSH from total glutathione.
Test [3] deals with cTnI.2 wt myocytes. Nature of the test: Flavoprotein oxidation response to BayK(−), wt myocytes (Example 10). Format: cell-based, mouse. Particulars: 10 μM BayK(−). On the procedure: (§1) In this experiment wt myocytes were pre-exposed to 0.1, 0.5 or 1 μM for 20 min and assessed changes in flavoprotein oxidation and ψm.
(§2) Measurement of mitochondrial flavoprotein oxidation: Flavoprotein autofluorescence was used to measure flavoprotein oxidation based on previously described methods (Yaniv Y, Juhaszova M, Lyashkov A E, Spurgeon H A, Sollott S J, Lakatta E G. Ca2+-regulated-cAMP/PKA signaling in cardiac pacemaker cells links ATP supply to demand. J Mol Cell Cardiol. 2011; 51(5):740-8). […] Fluorescent images were acquired at 1 min intervals with 200 ms exposure. Metamorph 6.3 (Version 7.10.3) was used to quantify the signal by manually tracing myocytes. An equivalent region not containing cells was used as background and was subtracted. Fluorescence values recorded over 5 min before and 5 min after addition of drugs were averaged and alterations in fluorescent ratios reported as the percentage increase from the basal average. FCCP (50 μM) and NaCN (40 mM) was added at the end of each experiment to achieve a respective maximal and minimal fluorescence value indicative of maximal and minimal flavoprotein oxidation.
The ICA-L agonist BayK(−) was used to activate the channel and assess mitochondrial function. […] FIG. 10 presents the mean+/−SEM of flavoprotein fluorescence from cTnI.2 wt and cTnI-G2035 mutant myocytes before and after exposure to 10 μM BayK(−) in the presence of 1 μM AID(S)-TAT, and increasing concentrations of variant peptides as indicated. N=no. of animals, n=no. of cardiomyocytes. P values shown compared with AID(S)-TAT as determined by the Kruskal-Wallis test.

The subject of test [4] is cTnI-G203S mutant myocytes. Nature of the test: Flavoprotein oxidation response to BayK(−), cTnI-G203S myocytes (Example 10). In kind it is cell-based, mouse. The note with it: 0.5 μM peptide, 10 μM BayK(−), FIG. 10D. On the procedure:
as §1
as §2, with “An equivalent region not containing cells was used as background and was subtracted.” left out
The ICA-L agonist BayK(−) was used to activate the channel and assess mitochondrial function. […] FIG. 10 presents the mean+/−SEM of flavoprotein fluorescence from cTnI.2 wt and cTnI-G2035 mutant myocytes before and after exposure to 10 μM BayK(−) in the presence of 1 μM AID(S)-TAT, and increasing concentrations of variant peptides as indicated. […]

Test [5] has as its system cTnI-G203S mice. Nature of the test: Heart weight to body weight ratio of treated cTnI-G203S mice. Format: in vivo, mouse. The note with it: 5 μM, 3×/wk/5 wk; compared with cTnI-G203S AID(S)-TAT; FIG. 16. How it is done: The effect of treatment of the mice with peptides on the development of hypertrophy assessed as changes in heart weight to body weight ratio was also examined. […] FIG. 16 presents the mean±SEM of heart weight to body weight ratio measurements from wt and cTnI-G203S mice treated with 10 μM AID(S)-TAT, 10 μM AID-TAT, 5 μM AIDP7-TAT, 5 μM AIDP14-TAT, 5 μM AIDP15-TAT or 5 μM AIDP16-TAT. n=number of mice as indicated. *P<0.05, **P<0.01 compared with cTnI-G203S AID(S)-TAT as determined by Kruskal-Wallis tests.

[6] abbreviates: 0.5 μM peptide added just prior to reperfusion.
Setting [7] is: 1 μM peptide added just prior to reperfusion.

Entries after “also recorded” stand apart in the source; their conditions may differ.

T1 sequence (Q08289 whole entry): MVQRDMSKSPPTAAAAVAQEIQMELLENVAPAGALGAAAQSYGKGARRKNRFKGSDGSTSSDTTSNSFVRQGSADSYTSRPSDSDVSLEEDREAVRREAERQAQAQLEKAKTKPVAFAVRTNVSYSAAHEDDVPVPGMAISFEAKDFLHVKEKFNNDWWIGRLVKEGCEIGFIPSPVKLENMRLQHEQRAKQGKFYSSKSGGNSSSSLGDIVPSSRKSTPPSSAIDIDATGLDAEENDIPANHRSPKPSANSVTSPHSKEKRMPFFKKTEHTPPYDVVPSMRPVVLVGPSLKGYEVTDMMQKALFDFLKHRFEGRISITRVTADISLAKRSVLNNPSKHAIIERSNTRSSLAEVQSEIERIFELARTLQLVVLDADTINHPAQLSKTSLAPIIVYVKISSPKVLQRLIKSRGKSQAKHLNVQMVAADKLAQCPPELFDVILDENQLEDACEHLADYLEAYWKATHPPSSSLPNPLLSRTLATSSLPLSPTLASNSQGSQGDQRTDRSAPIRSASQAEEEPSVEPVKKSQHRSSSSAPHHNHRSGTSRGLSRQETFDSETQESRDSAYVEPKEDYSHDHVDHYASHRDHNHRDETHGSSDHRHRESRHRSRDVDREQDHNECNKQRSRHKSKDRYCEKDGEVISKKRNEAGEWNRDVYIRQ

On to “AIDP7-TAT: QQQEEDLKGYLDWITQAE with TAT sequence”, for which, in test [1], the “K0.5 values compared to AID peptide” value is recorded as “decreased K0.5 values”. The “Creatine Kinase (CK) activity in perfusate” value in test [2] (setting [6]) is “reduced compared to the AID(S)-TAT peptide; also recorded: reduced in both P7-TAT (1 μM) and P7-TAT (0.5 μM) compared to the P6-TAT peptide; also recorded: at least as effective as AID-TAT (1 μM)”; in test [2] (setting [7]) it was “reduced compared to the AID(S)-TAT peptide; also recorded: reduced in both P7-TAT (1 μM) and P7-TAT (0.5 μM) compared to the P6-TAT peptide”. Also, the “Lactate Dehydrogenase (LDH) activity in perfusate” value is on record as “reduced compared to the AID(S)-TAT peptide; also recorded: reduced LDH at least as well as AID-TAT (1 μM)” in test [2] (setting [6]) and “reduced compared to the AID(S)-TAT peptide” in test [2] (setting [7]). For the same substance, the “GSH:GSSG ratio in whole heart tissue” value in test [2] (0.5 μM peptide) was “statistically significant increase in the GSH:GSSG ratio, comparable to the AID-TAT samples at 10 μM”; in test [2] (1 μM peptide) it was “statistically significant increase in the GSH:GSSG ratio, comparable to the AID-TAT samples at 10 μM”. Further, in test [2] (same concentration or lower dosages of P7-TAT versus AID-TAT), the “oxidative stress (CK activity, LDH activity and GSH:GSSG ratio taken together)” value is given as “more effective than AID-TAT at reducing oxidative stress”. Besides, the “BayK(−) induced increase in flavoprotein oxidation” value in test [3] (0.5 μM peptide 20 min, FIG. 10B) is “effective”; in test [3] (1 μM peptide 20 min, FIG. 10A) it was “just as effective at attenuating the response in wt myocytes as the original AID-TAT”; in test [4] it was “significantly attenuated increases in flavoprotein oxidation resulting from BayK(−) exposure”. The “heart weight to body weight ratio” value in test [5] is “significantly decreased heart weight/body weight”.

The values are drawn from patent publication US20240158447A1, “PEPTIDES FOR USE IN THE TREATMENT OR PREVENTION OF MYOCARDIAL DAMAGE” (THE UNIVERSITY OF WESTERN AUSTRALIA, priority 2020, published 2024).
